One compound from article PMC8447253 (2021) can be followed below.

Common to all, as to assay: emission titration (737 nm), Bard equation
Common to all, as to conditions: K+ (50 mM potassium phosphate), pH 7, enantiomer by table order, per base

For test [1], the system named is d(GCGCGCGCGC)2; (GC)5 (DNA, duplex) GCGCGCGCGC
For test [2], the system named is d(CGCGAATTCGCG)2 (DNA, duplex) CGCGAATTCGCG
Test [3] concerns d(CGCAAATTTGCG)2 (DNA, duplex) CGCAAATTTGCG
Test [4] deals with d(ATTATTATTATATTA)/d(TAATATAATAATAAT) (AT DNA) (DNA, duplex) ATTATTATTATATTA/TAATATAATAATAAT

In the case of `Cc1cnc2c(ccc3c(C)c(C)cnc32)c1C.Cc1cnc2c(ccc3c(C)c(C)cnc32)c1C.[Cr+3].c1ccc2nc3c4cccnc4c4ncccc4c3nc2c1`, the KDNA amounted to 770000 M⁻¹ in test [1] (site size n 3.1 ± 0.1 base pairs); 610000 M⁻¹ in test [1] (site size n 4.8 ± 0.2 base pairs); 1.4e+06 M⁻¹ in test [2] (site size n 1.6 ± 0.1 base pairs); 510000 M⁻¹ in test [2] (site size n 1.7 ± 0.1 base pairs); 1.7e+06 M⁻¹ in test [3] (site size n 1.92 ± 0.04 base pairs); 480000 M⁻¹ in test [3] (site size n 2.10 ± 0.09 base pairs). The KDNA stood at 4e+06 M⁻¹ in test [4] (site size n 2.25 ± 0.05 base pairs) and 3e+06 M⁻¹ in test [4] (site size n 2.28 ± 0.05 base pairs).
